In patent US20170027902A1, “Use of a Composition Comprising a Flavonol, A Flavonoid, and a Fatty Acid in the Treatment of Oxidative Injuries Due to Mitochondrial Dysfunction” (priority 2014, published 2017):

Columns and labels:
[1] = test system: primary cultures of mouse cortical neurons; assay: Mitochondrial respiration (Seahorse XF24, oxygen consumption rate); format: cell-based; conditions: 0.1 μM, FCCP 2 μM
Experimental: The effects of E, Q and E+Q on key parameters of mitochondrial respiration in primary cultures of mouse cortical neurons were measured using a Seahorse Bioscience XF24 Extracellular Flux Analyzer XF24 instrument. Oxygen consumption rate (OCR) in fmol/cell were normalized by counting viable cortical neurons at the end of each experiment. A seeding density of 80,000 neurons/well was sufficient to obtain a measurable basal OCR (4-6 fmol/min/cell) permitting both OCR induction and inhibition to be assessed. Mitochondrial function in cortical neurons was measured by the sequential injection of oligomycin (2 μM), FCCP (2 μM), rotenone (300 nM) and antimycin (5 μM) to control and OGD-exposed cultures treated with various concentrations of E, Q or E+Q (0.1 μM).

[2] = test system: primary cultures of mouse cortical neurons; assay: Oxygen glucose deprivation (OGD), cell viability by MTT assay; format: cell-based; conditions: for reduction in OGD-induced neuronal cell death / loss of cell viability (increase in neuronal survival): pretreatment 24 hrs before OGD (3 hrs), MTT 24 hrs after OGD; for reduction of loss in cell viability after OGD: treatment 0.5 hrs before OGD, 1 μg/ml, viability 24 hrs later
Experimental: Embryonic day 16 timed pregnant CD1 out-bred mice were obtained from Charles River Laboratories (Charles River; QC, Canada). Primary cortical neuron cultures were prepared from cerebral cortices of wild type (WT) CD1 mouse embryos as described previously, with the following modifications. Pregnant CD1 females were heavily anaesthetized with isoflurane vapor (Benson Medical Industries, Inc., Markham, ON) before being euthanized by decapitation. The embryonic day 16 (E16) fetuses were immediately removed from the sacrificed pregnant females by cesarean section and placed in ice-cold Hank's Balanced Salt Solution (HBSS) (GIBCO; Invitrogen, Amarillo, Calif.). The meninges were removed from the brains and cortices were isolated under a dissecting microscope. The cortices from each embryo were placed in individual wells of a 24-well plate (Corning; Lowell, Mass.), containing 1 ml of ice-cold PBS (GIBCO; […] Under sterile conditions, the tissue was briefly minced, transferred to 15 ml sterile conical tubes (Corning; Lowell, Mass.) and centrifuged at 350×g for 3 min at room temperature. The dissecting solution was discarded and the cortical neurons were then dissociated trituration with fire-polished glass pipettes followed by incubating in 1 ml of 0.1% trypsin solution (0.1% w/v trypsin (Invitrogen, Amarillo, Calif.) in PBS with 1 mM Mg^2+ and 13 mM glucose) at 37° C. for 15 min. The trypsinization was inhibited by the addition of 0.5 ml of trypsin inhibitor solution that also contained DNase I (0.06% w/v trypsin inhibitor (Invitrogen; Amarillo, Calif.) and 0.01% DNase I (Invitrogen; […] The tubes were mixed briefly and the cells were centrifuged at 350×g for 3 min at room temperature. The trypsin and inhibitor solutions were discarded and each cell pellet was suspended in 1 ml of cortical neuron plating medium (Neurobasal medium (Invitrogen, Amarillo, Calif.) with 10% fetal bovine serum (GIBCO; Invitrogen; Amarillo, Calif.), 2% B27 supplement, 1 mM L-glutamine, and 1% Gentamycin (Invitrogen; […] Cortical neurons were plated in 96-well plates (Corning; Lowell, Mass.) that were pre-coated with poly-D-lysine (PDL; Sigma-Aldrich; Oakville, ON) according to the procedure described by the manufacturer. Briefly, plates were coated immediately before use with 100 μg/ml PDL for 5-10 min (50 μl/well), washed three times with tissue-culture grade water and left to dry for 2 h before cells were introduced. Cortical neurons were plated at a concentration of 1×10^6 cells/ml (100 µl/well) and medium was completely changed the day after plating to serum-free cortical neuron medium (Neurobasal medium with 2% B27 supplement, 5 mM HEPES, 0.5 mM L-glutamine, and 20 μg/ml Gentamycin), which was replaced every 3 days in culture. Cultures were maintained in a humidified, 37° C. incubator with 5% CO2. Experiments were performed on the eighth day in vitro (DIV10). […] Glucose-free medium (glucose-free Dulbecco's Modified Eagle Medium (GBSS, Invitrogen; Amarillo, Calif.) containing either epicatechin or quercetin or epicatechin plus quercetin at concentration of 1 μg/ml or 3 μg/ml or the corresponding DMSO control (0.02% DMSO) was placed in a 96-well plate and equilibrated to 0% oxygen in a modular chamber incubator (Billups-Rothenberg; Del Mar, Calif.). The chamber was flushed for 4 min at 20 l/min with an anoxic gas mixture (5% CO2 and Balanced […]; Dartmouth, NS) using a step-down pressure system and placed in a humidified, 37° C. incubator for 12 h. Cortical neuron medium was replaced with OGD-medium (anoxic and glucose-free) and the cultures were placed in the modular chamber incubator. The chamber was flushed again with anoxic gas and placed inside a humidified, 37° C. incubator for 3 hrs. […] Cell viability was assessed 24 hours after the completion of OGD. The culture media was exchanged for MEM media without phenol red containing 0.5 mg/ml MTT (3-[4,5-dimethylthiazol-2-yl]-2,5-diphenyltetrazolium bromide). […]

[3] = 1 μg/ml total flavonoid (~3 μM; E+Q 0.5 μg/ml each)
[4] = 3 μg/ml total flavonoid (~10 μM; E+Q 1.5 μg/ml each)

Row | SMILES | loss of spare respiratory capacity (SRC) after OGD [1] | reduction in OGD-induced neuronal cell death / loss of cell viability (increase in neuronal survival) [2, 3] | reduction in OGD-induced neuronal cell death / loss of cell viability (increase in neuronal survival) ([2]; 1 μg/ml total flavonoid (~3 μM; E+Q 0.5 μg/ml each), listed as Epicatechin) [%] | reduction in OGD-induced neuronal cell death / loss of cell viability (increase in neuronal survival) [2, 4] | reduction of loss in cell viability after OGD [2] | reduction in OGD-induced neuronal cell death / loss of cell viability (increase in neuronal survival) ([2]; 3 μg/ml total flavonoid (~10 μM; E+Q 1.5 μg/ml each), listed as quercetin) [%]
1 | Oc1cc(O)c2c(c1)O[C@H](c1ccc(O)c(O)c1)[C@H](O)C2 [E, (2R,3R)-2-(3,4-dihydroxyphenyl)-3,4-dihydro-2H-chromene-3,5,7-triol] | only partially reversed | modestly reduced the loss in cell viability | 30 | protected | did not reduce the loss in cell viability | 
2 | O=c1c(O)c(-c2ccc(O)c(O)c2)oc2cc(O)cc(O)c12 [Q] | only partially reversed | failed to protect |  | modestly reduced the loss in cell viability | did not reduce the loss in cell viability | 30
